Measured values published in patent publication US4078083A, “Novel prostanoic acids” (Hoechst Aktiengesellschaft, priority 1973, dated 1978).
Converted amounts (≈) assume the structure as drawn.

Assays:
[1] = system: unstriped musculature (isolated rat stomach); assay: Effect on the unstriped musculature (isolated rat stomach according to Vane); format: cell-based, rat (Wistar); conditions: for EC50: 37° C, activity relative to contraction after 600 ng/ml PGA2, Table 1, read-out: Action on the unstriped musculature (isolated rat stomach) ED50
Description: Effect on the unstriped musculature (isolated rat stomach according to Vane, Br. J. Pharmac. Chemother., 12 344 (1957)).
The test was carried out on Wistar rats of both sexes having a weight of 200 to 220 g. The animals were killed by a blow onto the neck, the stomach was rapidly taken out and put into a Petri dish containing a pre-heated cancer solution. The fundus which is easily to be distinguished from the pyloric part because of its grey color, was separated and opened longitudinally by a longitudinal cut. Transversal cuts in counter-direction to each other led to a stripe which could be hung into the organ bath. The organ bath contained the usual cancer solution which was maintained at a temperature of 37° C and which was risen in bubbles with a mixture of 95 % O2 and 5 % CO2. A writing lever charged with 1 g served to register on a kymograph the contractions produced by adding the substance to be examined to the organ bath. The test criterion was the contraction occurring after the addition of the substance to be examined. The degree of activity was determined by comparing the contraction occurring after 600 ng/ml PGA2. The values expressed in % with regard to the comparison preparation were used to draw a dose-activity-curve which allowed to determine the medium activity dose.
All substances were present as stock-solutions in absolute alcohol and were diluted to their final concentration with phosphate buffer (pH = 7.4).

[2] = system: bronchospasm by acetylquoline (Guinea pig); assay: Bronchospasmolytic activity according to Konzett-Rossler, acetylquoline bronchospasm; format: in vivo; conditions: Cavia porcellus, iv, irritant acetylquoline, read-out: Bronchospasmolysis ID50, acetylquoline
Description: (§1) test of intravenously administered preparations for bronchospasmolytic activity according to Konzett-Rossler.
(§2) Except for irrelevant modifications, the test arrangement used largely corresponded to the description given by H. Konzett and R. Rossler, Arch. exp. Path. Pharmakol. 195, 71 (1940)). Test animals were male white Guinea pigs having a weight of 400 to 500 g. They were anesthesized with hexobarbital and urethane. All preparations to be administered were diluted with phosphate buffer (pH = 7.4) and administered in a volume of 0.1 ml.
(§3) Physiological or pharmacological effects were registered by measuring the air volume in the lung when the maximum blowing pressure was kept constant and a constant volume was maintained by respiration above atmospheric pressure. Capacity modifications in the respiratory tract show themselves in an increase or decrease of the air volume absorbed by the lung under the given constant blowing pressure. To produce a heavy bronchospasm acetylquoline or histamine were injected by the intravenous route. The dosage unit of the irritant was chosen such that an about 70 to 80 % decrease of the absorption capacity of the lung was obtained. The substance to be examined was administered by the intravenous route in the V. jugularis. 30 seconds thereafter the already evaluated dosage unit of the irritant was injected once more. The medium inhibition dose was red off from the dose activity curve drawn either graphically or by means of regression analysis.

blood pressure (cat) = assay: Test for the effect on the blood circulation (hypotensive properties, Kannegiesser and Lee); format: in vivo
Description: Test for the effect on the blood circulation
The hypotensive properties were examined in accordance with the methods described by Kannegiesser and Lee, Nature 229, 498 (1971).
Test animals were cats of both sexes having a weight of 2.0 to 3.0 kg.
The animals were anesthesized with pentobarbital in an amount of 1.7 to 2.8 mg/ml in 0.9 % NaCl-solution as continuous infusion with 5 mg/kg/hour and pretreated with pentolinium (Ansolysen, May & Baker) with 10 mg/animal by the intraperitoneal route. The test substances were administered through the Vena jugularis. The blood pressure was measured in the A. carotis ext. directly and recorded by means of a Statham pressure sensor on a multi-channel recorder.
The maximum change of the systolic and diastolic blood pressure was measured in mm Hg.
All test preparations were present as stock solutions in absolute alcohol and were diluted to the end concentration immediately before the test beginning in phosphate buffer (pH = 7.4).

[3] = system: bronchospasm by histamine (Guinea pig); assay: Bronchospasmolytic activity according to Konzett-Rossler, histamine bronchospasm; format: in vivo; conditions: for ED50: Cavia porcellus, iv, Guinea pig, irritant histamine, read-out: Bronchospasmolysis ID50, Histamine
Description: as §1, §2, §3

Row | SMILES | EC50 ([1]; isolated rat stomach) [µg/mL] | ED50 in the isolated rat stomach ([1]; isolated rat stomach) [µg/mL] | ED50 [2] [µg/kg] | Blood pressure (modifications in mm Hg), first value (systolic) (blood pressure (cat); after 5 μ/kg i.v. (cat)) [mm Hg] | Blood pressure (modifications in mm Hg), second value (diastolic) (blood pressure (cat); after 5 μ/kg i.v. (cat)) [mm Hg] | ED50 [3] [µg/kg] | Blood pressure (modifications in mm Hg), one value printed (systolic and diastolic not separated) (blood pressure (cat); after 5 μ/kg i.v. (cat)) [mm Hg] | spasmogen activity ([1]; in words) | blood-pressure lowering activity (blood pressure (cat); in words, compared with 15-α-hydroxy-9-oxo-13-trans-prostenoic acid) | bronchodilating activity ([3]; in words, irritant not specified) | Blood pressure (modifications in mm Hg), first value (systolic) (blood pressure (cat); at 0.5 μg/kg i.v. (cat)) [mm Hg] | Blood pressure (modifications in mm Hg), second value (diastolic) (blood pressure (cat); at 0.5 μg/kg i.v. (cat)) [mm Hg]
1 | CCCCCC(O)C=C[C@H]1CCC(O)[C@@H]1CC=CCOCC(=O)O (mixture of isomers) [Example 29 A, rac. 9,15-dihydroxy-3-oxa-5,13-trans-prostadienic acid] |  | 3.1 (≈ 9.11 µM) |  |  |  |  |  |  |  |  |  | 
2 | CCCCCC(O)/C=C/C1CCC(=O)C1CCC(C)CCCC(=O)O (mixture of isomers) [Example 5, rac. 15-α-Hydroxy-5-methyl-9-oxo-13-trans-prostenoic Acid] | 0.2 |  | 0.4 | -20 | -30 |  |  | good spasmogen activity | reduced as compared with 15-α-hydroxy-9-oxo-13-trans-prostenoic acid | good bronchodilating activity |  | 
3 | CCCCCC(O)/C=C/C1CCC(=O)C1CCCCCCC(=O)O (mixture of isomers) [Example 4, rac. 15-α-Hydroxy-9-oxo-13-trans-prostenoic Acid] | 0.1 |  | 0.1 |  |  | 0.1 |  |  |  |  | -22 | -27

Second part, led by results:

Row | EC50 ([1]; isolated rat stomach) [µg/mL] | SMILES | ED50 in the isolated rat stomach ([1]; isolated rat stomach) [µg/mL] | ED50 [2] [µg/kg] | Blood pressure (modifications in mm Hg), first value (systolic) (blood pressure (cat); after 5 μ/kg i.v. (cat)) [mm Hg] | Blood pressure (modifications in mm Hg), second value (diastolic) (blood pressure (cat); after 5 μ/kg i.v. (cat)) [mm Hg] | ED50 [3] [µg/kg] | Blood pressure (modifications in mm Hg), one value printed (systolic and diastolic not separated) (blood pressure (cat); after 5 μ/kg i.v. (cat)) [mm Hg] | spasmogen activity ([1]; in words) | blood-pressure lowering activity (blood pressure (cat); in words, compared with 15-α-hydroxy-9-oxo-13-trans-prostenoic acid) | bronchodilating activity ([3]; in words, irritant not specified) | Blood pressure (modifications in mm Hg), first value (systolic) (blood pressure (cat); at 0.5 μg/kg i.v. (cat)) [mm Hg] | Blood pressure (modifications in mm Hg), second value (diastolic) (blood pressure (cat); at 0.5 μg/kg i.v. (cat)) [mm Hg]
4 | 1 | CCCCCC(O)/C=C/C1CCC(=O)C1CCCCC(C)CC(=O)O (mixture of isomers) [Example 7, rac. 15-α-Hydroxy-3-methyl-9-oxo-13-trans-prostenoic Acid] |  | 1 | -10 | -20 | 4 |  |  |  |  |  | 
5 | 0.5 | CCCCCC(O)/C=C/C1CCC(=O)C1CCCC(C)CCC(=O)O (mixture of isomers) [Example 6, rac. 15-α-Hydroxy-4-methyl-9-oxo-13-trans-prostenoic Acid] |  | 0.5 | -45 | -50 | 0.9 |  |  |  |  |  | 
6 | 1.3 | CCCCCC(O)/C=C/C1CCC(=O)C1CCCCCC(C)C(=O)O (mixture of isomers) [Example 8, rac. 15-α-Hydroxy-2-methyl-9-oxo-13-trans-prostenoic Acid] |  | > 10 |  |  |  | 0 |  |  |  |  | 
